Experimental data reported in US6593372B2, “Therapeutic uses for nitric oxide inhibitors” (Cold Spring Harbor Laboratory, priority 1996, dated 2003).
Marks after values point to notes of the source that are not given here.

How the values were obtained:
[1] = tested on: Drosophila melanogaster larvae; test: Adult fly phenotype (leg segment hypertrophy) after injection of NOS inhibitors into third instar larvae; assay type: in vivo; settings: adults after injection of late third instar larvae
Procedure: Chemicals were dissolved in Schneider's solution at concentrations of 0.1 M for L-NAME and D-NAME and 0.01M for ETU and mixed with Freund's adjuvant (Sigma) in 1:3 ratio. Amounts of 5-10 nl were microinjectd in staged late third instar using a glass needle.
To test this hypothesis, NOS activity was inhibited by injecting specific NOS inhibitors in the developing larvae at the end of the third instar, several hours before metamorphosis. Most of the larvae completed metamorphosis successfully, giving rise to adult flies within the normal time frame. The resulting adults differed from normal flies in many respects, the most dramatic being enlargements of the appendages and other structures of the fly body. The changes included a) hypertrophy of the demur, tibia and the segments of the tarsus; b) overgrowth of the tissues originating from the genital discs; in extreme cases, these cells contributed to more than one-quarter of the fly body; c) and increase of the overall surface of the wings; d) overgrowth of the cells of tergites and sternites; e) hypertrophy of the humerus; f) occasional duplications of some areas of the eye; g) occasional realformation of genital structures, legs and eyes; and h) occasional ectopic formation of misplaced body structures.
The changes were most profound in, and most often affected the legs of, the adults. […]

[2] = tested on: transplanted BM cells, spleen colonies; test: Hemopoietic colonies in spleens of irradiated mice after BM transplantation and injection of NOS inhibitors (erythroid differentiation); assay type: in vivo; settings: 9-10 days after transplantation
Procedure: To study the formation of cell of the erythroid lineage in the spleen of the irradiated recipient mice, the animals (females of F1 CBA×C57B1 hybrids weighing 22-24 g) were treated with 750 cGy total body irradiation within 3-4 hours before transplantation. This dosage was tested to be enough for complete suppression of hematopoiesis in the irradiated recipient animals. BM cells were flushed from the femurs of syngeneic donors and injected intravenously (10^5 BM cells per mice) in the recipients. The animals received twice a day injections of 100 mg/kg of L-NAME and D-NAME and 10 mg/kg of ETU for 7-10 days. Mice were analyzed 9-10 days after transplantation.
In contrast, when animals were treated with NOS inhibitors after BM transplantation, most of the colonies in the spleen contained undifferentiated blast cells (up to 85% of blast cells colonies and mixed blast erythroid cells colonies). Erythroid colonies comprised only 15% of the total number of colonies, and the megakaryocyte and granulocyte colonies were not detectable. The results were similar with two structurally unrelated NOS inhibitors, confirming the specificity of their action. Thus, prolonged treatment of recipient mice after BM transfer with NOS inhibitor, reversed the ratio of blast cells-containing colonies to the erythroid cells-containing colonies almost 16 fold, effectively preventing erythroid differentiation.

[3] = tested on: transplanted BM cells, membrane colonies; test: Hemopoietic colonies on cellulose acetate membranes in the peritoneal cavity of irradiated mice (myeloid differentiation); assay type: in vivo; settings: 7-8 days
Procedure: To study the formation of cells of the myeloid lineage, cellulose acetate membranes were implanted in the peritoneal cavity of mice. After 7 days, when a layer of fibroblasts had covered the membranes, the mice were irradiated as described above. BM cells from syngeneic donors were injected (10^5 BM cells per mice) in the peritoneal cavity of the recipients. Animals received injections of NOS inhibitors as described above. Membranes with growing colonies were isolated and analyzed 7-8 days later.
The differentiation status of the colonies in the spleen was evaluated by morphological criteria, myeloperoxidase reaction, and by immunohistochemical tests for the presence of receptors to various cytokines, which are present only at specific stages of the myeloid cells' maturation. […] A much smaller fraction contained undifferentiated blasts cells (6%), and a very small fraction of colonies contained erythroid cells (1.3%). In contrast, when animals were treated with NOS inhibitors after BM transplantation, most of the colonies on the membranes (up to 85%) contained and undifferentiated blasts cells. Colonies with differentiated cells of the granulocyte lineage comprised only 15.6% of the total number of colonies, and a negligible fraction of the colonies (<0.5%) contained erythroid cells. The results were similar with two structurally unrelated NOS inhibitors, confirming the specificity of their action. Thus, prolonged treatment of recipient mice after BM transfer with NOS inhibitor, reversed the ratio of blast cells-contiaing colonies to the granulocytic colinies almost 80-fold, effectively preventing myeloid differentiation.

BM cells [4] = test: Hematopoietic markers in BM cells of irradiated mice after injection of NOS inhibitors; assay type: in vivo; settings: 7-10 days after transplantation; for c-kit positive BM cells: control 2%; for IL-3-R positive BM cells: control 7%; for GM-CSF-R positive BM cells: control 18%; for G-CSF-R positive BM cells: control 24%
Procedure: To study the maturation of hematopoietic cells in the bone marrow of the irradiated recipient mice, the animals were treated as described above and the BM cells from the demurs of syngeneic donors were injected intravenously (10^5 BM cells per mice) in the recipients.
The BM cells were tested for the presence of various growth factor receptors which serve as markers of the differentiation stage and indicate the presence of stem cells and multipotent percursor cells. The BM preparations were tested for cells expressing receptors to HSF (ligand of c-kit), GM-CSF, G-CSF and IL-3.

[5] = tested on: tadpole brain, optic tectum; test: Elvax implants with NO donor or NOS inhibitor in brain ventricle of stage 45 tadpoles, optic tectum analysis; assay type: in vivo; settings: for BrdU-positive cells (total), change / BrdU-positive cells per 10^3 cells, change / TUNEL-positive cells (total), change / TUNEL-positive cells per 10^3 cells, change / brain volume, change / cell density, change / cell number, change: vs saline control
Procedure: To test the effect of exogenously supplying NO to the developing tadpole brain, pieces of the slow-release matrix Elvax impregnated either with S-nitroso-N-acetylpenicillamin (SNAP, a widely used donor or NO which releases NO upon hydrolysis), or with saline as a control were inserted into the brain ventricle of state 45 tadpoles. At 1 or 3 days after implantation the following parameters in the optic tectum were analyzed: the total number of cells (as measured by the number of DAPI-stained nuclei), the number of S phase proliferating cells (as measured by BrdU incorporation), the number of apoptotic cells (as measured by TUNEL assay), the relative numbers of BrdU- and TUNEL-positive cells per 10^3 total cells, the size of the optic tectum, and the cell density in the tectum (Table 5). […] At 3 days the effects of NO on cell proliferation are less pronounced, likely reflecting the complete hydrolysis of the NO donor and the cessation of NO release. […] An increase in programmed cell death in response to NO likely contributes to the decrease in the total number of cells in the brain.
The close proximity of proliferating cells and NOS-expressing cells in the optic tectum and data from the NO donor experiments above are consistent with the proposed antiproliferative role of NO during Xenopus brain development. To test the causative role of NO in cell cycle arrest of neuronal precursors and to determine whether production of NO is necessary for cell cycle arrest and subsequent differentiation of neuronal precursors in the developing Xenopus brain, NOS activity in the brain was inhibited by using Elavax matrix impregnated with a NOS inhibitor, either L-NAME or ETU, or with saline as a control. Pieces of impregnated matrix were inserted into the brain ventricle of stage 45 tadpoles. After 3 days of treatment the brains were examined for changes in the patterns of cell division and differentiation, cell number, and overall size and morphology.
Animals, NOS inhibitors, and NO donors. Albino Xenopus laevis tadpoles were obtained by human chorionic gonadotrophin induced matings and raised under standard conditions. At state 45^5, animals were anesthetized in 0.02% 3-aminobenzoic acid (MS-222; Sigma) and a tiny piece (100 μm^2×30 μm) of slow release Elvax plastic polymer (Dupont) was inserted into the tectal ventricle through an incision made in the overlying skin with a 30 gauge needle. Elvax was prepared with stock concentrations of the NOS inhibitors, 2-ethyl-2thiopseudourea (ETU, Sigma) or L-nitro-arginine methyl ester (L-NAME, Sigma) or the NO donor S-nitroso-acetylpenicillamnin (SNAP, Sigma) prepared as a 1:10 ratio of chemical to polymer matrix. Low molecular weight molecules, including L-NAME, are released at a constant rate over a period up to 30 days as the lyophilized Elvax matrix slowly hydrates. […] Control animals were treated with Elvax impregnated with saline (0.1 M phosphate buffer).
Histochemistry and antibodies. Immunocytochemistry with wholemount preparations and sections of the tadpole was performed as described. Monoclonal antibodies to β-II tubulin, N-CAM (developed by U. Rutishauser), and Islet-1 (developed by T. M. Jessell) were obtained from the Developmental Studies Hybridoma Bank developed under the auspices of the NICHD and maintained by the University of Iowa, Department of Biological Sciences, Iowa City, Iowa 52243. Anti-mouse antibody conjugated to fluorescein (Bochringer Manheim) was used as a secondary antibody. Specimens were visualized and photographed under fluorescence or Normarski optics on a Zeiss Axiophot. For nuclei visualization, brain sections were stained with DAPI, a fluorescent DNA stain (Molecular Probes) at 1 μM. To identify cells in S phase tadpoles were injected with 50 μg/ml 5-Bromo-deoxyuridine (BrdU) (Beckton-dickinson). After two hours survival, animals were fixed in 3.7% paraformaldehyde for 2 hours and then in 70% ethanol overnight. […]

BM cells [6] = test: TUNEL apoptosis in BM cells after prolonged treatment with NOS inhibitors; assay type: in vivo; settings: control 8+/−3%
Description: To test whether prolonged treatment with NOS inhibitors affects the rate of programmed cell death in BM cells, the number of aproptotic cells in the preparation of BM cells was examined.

developing Xenopus brain = test: Plastic impregnated with NOS inhibitors in brain ventricle of stage 43 tadpoles (BrdU, TUNEL); assay type: in vivo, Xenopus laevis; settings: stage 43 tadpoles, 3, 7 and 12 days, vs control brains
Procedure: After 3, 7 and 12 days, animals were examined for changes in the patterns of cell division, differentiation, survival, and morphology of the brain. […] Whether the inhibition of NOS and excessive proliferation of cells in the developing brain affects the programmed death of neurons in the tectum was tested. […] The increase in the number of TUNEL-positive cells is not due to toxicity of the inhibitors, since cells continued to incorporate BrdU very effectively. […] Alternatively, this may indicate that differentiated neurons became dependent on NO for survival, similar to the situation in fully differentiated PC12 cells (Peunova et al., 1996). Neuronal differentiation in the brain is affected

[7] = tested on: tadpole brain, optic tectum; test: Elvax implants with NO donor or NOS inhibitor in brain ventricle of stage 45 tadpoles, optic tectum analysis; assay type: in vivo; settings: 7d

SMILES: COC(=O)[C@H](N)CCCN=C(N)N[N+](=O)[O-] [D-NAME, D-nitroarginine methyl ester]
- increase of diameter of certain leg segments (hypertrophy, third pair of legs) [1]: not
- blast cell and erythroid cells colonies [2]: 13%
- erythroid colonies [2]: > 60%
- granulocyte colonies [2]: 4%
- megakaryocyte colonies [2]: 7.5%
- blast cell colonies ([2]; injections twice a day): 14%
- blast cell colonies [3]: 6%
- erythroid colonies [3]: 1.3%
- granulocytic colonies [3]: 92%
- c-kit positive BM cells (BM cells [4]): 7%
- IL-3-R positive BM cells (BM cells [4]): 12%
- GM-CSF-R positive BM cells (BM cells [4]): 16%
- G-CSF-R positive BM cells (BM cells [4]): 19%

SMILES: CC(=O)N[C@H](C(=O)O)C(C)(C)SN=O (racemic) [SNAP, S-nitroso-N-acetylpenicillamine]
- BrdU-positive cells (total) ([5]; 1d): 12 +/− 2
- BrdU-positive cells per 10^3 cells ([5]; 1d): 3
- TUNEL-positive cells (total) ([5]; 1d): 138 +/− 12
- TUNEL-positive cells per 10^3 cells ([5]; 1d): 34
- brain volume ([5]; 1d): 66.2 +/− 6.4 mm^3 × 10^−4
- cell density ([5]; 1d): 62.6 +/− 14.1 cells per mm^3 × 10^−4
- cell number ([5]; 1d): 3983 +/− 606
- BrdU-positive cells (total), change ([5]; 1d): −96.2%
- BrdU-positive cells per 10^3 cells, change ([5]; 1d): −95.2%
- TUNEL-positive cells (total), change ([5]; 1d): −28.2%
- TUNEL-positive cells per 10^3 cells, change ([5]; 1d): −10.5%
- brain volume, change ([5]; 1d): −15.6%
- cell density, change ([5]; 1d): −2.8%
- cell number, change ([5]; 1d): −20.7%
- BrdU-positive cells (total) ([5]; 3d): 316 +/− 22
- BrdU-positive cells per 10^3 cells ([5]; 3d): 63
- TUNEL-positive cells (total) ([5]; 3d): 82 +/− 10
- TUNEL-positive cells per 10^3 cells ([5]; 3d): 16
- brain volume ([5]; 3d): 80.1 +/− 8.6* mm^3 × 10^−4
- cell density ([5]; 3d): 62.3 +/− 1.7** cells per mm^3 × 10^−4
- cell number ([5]; 3d): 5012 +/− 594**
- BrdU-positive cells (total), change ([5]; 3d): −34.0%
- BrdU-positive cells per 10^3 cells, change ([5]; 3d): +21.1%
- TUNEL-positive cells (total), change ([5]; 3d): −51%
- TUNEL-positive cells per 10^3 cells, change ([5]; 3d): −11.1%
- brain volume, change ([5]; 3d): −31.3%
- cell density, change ([5]; 3d): −20.8%
- cell number, change ([5]; 3d): −45.1%
- stock concentration found to be effective ([5]; Elvax stock, range of concentrations tested): 300 mM
- number of proliferating cells, of the control value ([5]; day 1): 5%

SMILES: CCSC(=N)N [ETU, 2-ethyl-2-thiopseudourea]
- c-kit positive BM cells (BM cells [4]): 84%
- IL-3-R positive BM cells (BM cells [4]): 83%
- GM-CSF-R positive BM cells (BM cells [4]): 10%
- G-CSF-R positive BM cells (BM cells [4]): 8%
- proportion of apoptotic cells (TUNEL) in BM (BM cells [6]): 8%
- number of cells in the S phase (BrdU labeling) in the brain (developing Xenopus brain): dramatic increase
- BrdU-positive cells (total) ([5]; 7d): 550 +/− 50
- BrdU-positive cells per 10^3 cells ([5]; 7d): 42
- TUNEL-positive cells (total) ([5]; 7d): 184 +/− 7
- TUNEL-positive cells per 10^3 cells ([5]; 7d): 14
- brain volume ([5]; 7d): 122.3 +/− 4.3* mm^3 × 10^−4
- cell number ([5]; 7d): 12870 +/− 690*
- BrdU-positive cells per 10^3 cells, change ([5]; 7d): +247%
- TUNEL-positive cells (total), change ([5]; 7d): +128%
- TUNEL-positive cells per 10^3 cells, change ([5]; 7d): +40.0%
- cell number, change ([5]; 7d): +53.7%
- toxicity to the animals ([5]; Elvax stock 1 M L-NAME, 10 mM ETU, increased BrdU incorporation): without any signs of toxicity
- cell density [7]: 105 +/− 3* cells per mm^3 × 10^−4
- BrdU-positive cells (total), change ([7]; vs saline control): +269%
- cell density, change ([7]; vs saline control): +25.5%
